This passage reports IC50 results from patent publication US20130018033A1, “RAF INHIBITOR COMPOUNDS AND METHODS OF USE THEREOF” (ARRAY BIOPHARMA INC., priority 2009, published 2013).

The target of one assay is T1, V600E full-length B-Raf (Homo sapiens, UniProt P15056, V600E).
T1 construct: 1 μM FSBA-MEK and 20 nM V600E full-length B-Raf; made in house; host or cells: Sf9 insect cells (baculovirus)
Briefly: B-Raf IC50 assay (Example A). The format is biochemical. The source says:
Determining the activity of Raf in the sample is possible by a number of direct and indirect detection methods (US 2004/0082014). Activity of human recombinant B-Raf protein may be assessed in vitro by assay of the incorporation of radio labeled phosphate to recombinant MAP kinase (MEK), a known physiologic substrate of B-Raf, according to US 2004/0127496 and WO 03/022840. The activity/inhibition of V600E full-length B-Raf was estimated by measuring the incorporation of radio labeled phosphate from [γ-^33P]ATP into FSBA-modified wild-type MEK (see Example A).
Activity of human recombinant B-Raf protein may be assessed in vitro by assay of the incorporation of radio labeled phosphate to recombinant MAP kinase (MEK), a known physiologic substrate of B-Raf, according to US 2004/0127496 and WO 03/022840. Catalytically active human recombinant B-Raf protein is obtained by purification from sf9 insect cells infected with a human B-Raf recombinant baculovirus expression vector.
The activity/inhibition of V600E full-length B-Raf was estimated by measuring the incorporation of radio labeled phosphate from [γ-^33P]ATP into FSBA-modified wild-type MEK. The 30-μL assay mixtures contained 25 mM Na Pipes, pH 7.2, 100 mM KCl, 10 mM MgCl2, 5 mM β-glycerophosphate, […], 4 μM ATP, 500 nCi [γ-^33P]ATP, 1 μM FSBA-MEK and 20 nM V600E full-length B-Raf. Incubations were carried out at 22° C. in a Costar 3365 plate (Corning). Prior to the assay, the B-Raf and FSBA-MEK were preincubated together in assay buffer at 1.5×(20 μL of 30 nM and 1.5 μM, respectively) for 15 minutes, and the assay was initiated by the addition of 10 μL of 10 μM ATP. Following the 60-minute incubation, the assay mixtures were quenched by the addition of 100 μL of 25% TCA, the plate was mixed on a rotary shaker for 1 minute, and the product was captured on a Perkin-Elmer GF/B filter plate using a Tomtec Mach III Harvester. After sealing the bottom of the plate, 35 μL of Bio-Safe II (Research Products International) scintillation cocktail were added to each well and the plate was top-sealed and counted in a Topcount NXT (Packard).

The test system of assay [1] is basal ERK1/2 phosphorylation in Malme-3M cells. Kind of assay: Cellular ERK 1/2 phosphorylation assay (Example A1). The format is cell-based. To be noted: Homo sapiens, 1 hour incubation, pERK normalized to total ERK, read-out: P-ERK Malme3-M IC50. Here is the method: Inhibition of basal ERK1/2 phosphorylation was determined by the following in vitro […], which comprises incubating cells with a compound of Formula I for 1 hour and quantifying the fluorescent pERK signal on fixed cells and normalizing to total ERK signal.
Malme-3M cells were obtained from ATCC and grown in RPMI-1640 supplemented with 10% fetal bovine serum. Cells were plated in 96-well plates at 24,000 cells/well and allowed to attach for 16-20 hours at 37° C., 5% CO2. The media was removed, and DMSO-diluted compounds were added in RPMI-1640 at a final concentration of 1% DMSO. The cells were incubated with the compounds for 1 hour at 37° C., 5% CO2. The cells were washed with PBS and fixed in 3.7% formaldehyde in PBS for 15 minutes. This was followed by washing in PBS/0.05% Tween20 and permeabilizing in −20° C. 100% MeOH for 15 minutes. Cells were washed in PBS/0.05% Tween20 then blocked in Odyssey blocking buffer (LI-COR Biosciences) for 1 hour. Antibodies to phosphorylated ERK (1:400, Cell Signaling #9106, monoclonal) and total ERK (1:400, Santa Cruz Biotechnology #sc-94, polyclonal) were added to the cells and incubated 16-20 hours at 4° C. After washing with PBS/0.05% Tween20, the cells were incubated with fluorescently-labeled secondary antibodies (1:1000 goat anti-rabbit IgG-IRDye800, Rockland and 1:500 goat anti-mouse IgG-Alexa Fluor 680, Molecular Probes) for an additional hour. Cells were then washed and analyzed for fluorescence at both wavelengths using the Odyssey Infrared Imaging System (LI-COR Biosciences). Phosphorylated ERK signal was normalized to total ERK signal.

Setting [2] is: [γ-33P]ATP incorporation into FSBA-MEK, 4 μM ATP, read-out: BRAF V600E IC50.
[3] abbreviates: B-Raf V600E assay of Example A, read-out: IC50.

SMILES strings stand for the structures. pIC50: −log10 of the molar value. Where two headings read alike, the source gives them in different places. Bounds are passed on as bounds.

T1 sequence (P15056 whole entry V600E): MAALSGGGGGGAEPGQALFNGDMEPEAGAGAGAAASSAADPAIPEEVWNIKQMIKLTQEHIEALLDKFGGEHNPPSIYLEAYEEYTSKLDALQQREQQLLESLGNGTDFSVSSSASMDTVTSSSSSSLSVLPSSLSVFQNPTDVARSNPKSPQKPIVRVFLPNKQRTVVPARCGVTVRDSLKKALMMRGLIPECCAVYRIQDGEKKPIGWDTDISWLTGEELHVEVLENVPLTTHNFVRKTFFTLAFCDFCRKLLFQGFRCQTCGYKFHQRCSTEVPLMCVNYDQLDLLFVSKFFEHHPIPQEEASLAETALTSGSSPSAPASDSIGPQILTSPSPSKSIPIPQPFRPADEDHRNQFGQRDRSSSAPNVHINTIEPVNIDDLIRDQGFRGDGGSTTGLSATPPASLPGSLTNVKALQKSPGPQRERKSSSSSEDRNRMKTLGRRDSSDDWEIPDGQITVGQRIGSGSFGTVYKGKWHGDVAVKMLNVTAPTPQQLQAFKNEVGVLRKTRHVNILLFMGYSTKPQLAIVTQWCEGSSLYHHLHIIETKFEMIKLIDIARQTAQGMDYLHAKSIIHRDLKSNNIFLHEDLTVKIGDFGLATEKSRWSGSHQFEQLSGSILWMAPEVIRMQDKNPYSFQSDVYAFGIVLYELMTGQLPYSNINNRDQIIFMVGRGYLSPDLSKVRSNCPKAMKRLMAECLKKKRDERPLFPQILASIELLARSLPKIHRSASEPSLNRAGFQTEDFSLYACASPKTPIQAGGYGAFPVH

For orientation: pIC50 means −log10 of the IC50, conventionally taken in molar units. `CCCS(=O)(=O)Nc1ccc(F)c(NC(=O)c2cc(C)cc3c(NC4CCCC4)ncnc23)c1F` [Example 71, 4-Cyclopentylamino-6-methyl-quinazoline-8-carboxylic acid [2,6-difluoro-3-(propane-1-sulfonylamino)-phenyl]-amide]: the pIC50 at V600E full-length B-Raf (setting [2]) was less than 6.00. On to `CCCS(=O)(=O)Nc1cc(F)c(F)c(NC(=O)c2cccc3c(NCCF)ncnc23)c1F` [Example 43, 4-(2-Fluoro-ethylamino)-quinazoline-8-carboxylic acid [2,3,6-trifluoro-5-(propane-1-sulfonylamino)-phenyl]-amide], for which the pIC50 was greater than 6.00 on V600E full-length B-Raf (setting [3]), 6.53 on V600E full-length B-Raf (setting [2]) and 5.54 in assay [1].

On to `CCCS(=O)(=O)Nc1cc(F)c(F)c(NC(=O)c2cccc3c(NN4CCOCC4)ncnc23)c1F` [Example 47, 4-(Morpholin-4-ylamino)-quinazoline-8-carboxylic acid [2,3,6-trifluoro-5-(propane-1-sulfonylamino)-phenyl]-amide], for which the pIC50 on V600E full-length B-Raf (setting [3]) was greater than 6.00; at V600E full-length B-Raf (setting [2]) it was 6.98; in assay [1], 5.93. In the case of `CN(C)S(=O)(=O)Nc1ccc(F)c(NC(=O)c2cccc3c(N)ncnc23)c1F` [Example 36, 4-Amino-N-(3-(N,N-dimethylsulfamoylamino)-2,6-difluorophenyl)quinazoline-8-carboxamide], the pIC50 on V600E full-length B-Raf (setting [3]) is greater than 7.00; at V600E full-length B-Raf (setting [2]) it was 7.83; in assay [1], 7.60.

In the case of `Nc1ncnc2c(C(=O)Nc3c(F)ccc(NS(=O)(=O)CCCF)c3Cl)cccc12` [Example 24, 4-Amino-quinazoline-8-carboxylic acid [2-chloro-6-fluoro-3-(3-fluoro-propane-1-sulfonylamino)-phenyl]-amide], the pIC50 at V600E full-length B-Raf (setting [3]) is greater than 7.00; on V600E full-length B-Raf (setting [2]), 9.85; in assay [1], 8.39. As to `CCCS(=O)(=O)Nc1ccc(F)c(NC(=O)c2cncc3c(N)ncnc23)c1F` [Example 2, 4-Amino-pyrido[4,3-d]pyrimidine-8-carboxylic acid [2,6-difluoro-3-(propane-1-sulfonylamino)-phenyl]-amide], the pIC50 is greater than 7.00 on V600E full-length B-Raf (setting [3]), 8.90 at V600E full-length B-Raf (setting [2]) and 8.02 in assay [1]. Take `CCCS(=O)(=O)Nc1cccc(NC(=O)c2cccc3c(N)ncnc23)c1Cl` [Example 5, 4-Amino-quinazoline-8-carboxylic acid [2-chloro-3-(propane-1-sulfonylamino)-phenyl]-amide]: the pIC50 on V600E full-length B-Raf (setting [3]) was greater than 7.00; on V600E full-length B-Raf (setting [2]) it was 8.32; in assay [1] it was 7.39. On to `CCCS(=O)(=O)Nc1cc(F)c(F)c(NC(=O)c2cccc3c(NC4CCC(F)(F)CC4)ncnc23)c1F` [Example 46, 4-(4,4-Difluoro-cyclohexylamino)-quinazoline-8-carboxylic acid [2,3,6-trifluoro-5-(propane-1-sulfonylamino)-phenyl]-amide], for which the pIC50 on V600E full-length B-Raf (setting [2]) was less than 6.00. Same read-out and setting: the same measure for `CCCS(=O)(=O)Nc1cc(F)c(F)c(NC(=O)c2cccc3c(Nc4ccn(C)n4)ncnc23)c1F` [Example 48, 4-(1-Methyl-1H-pyrazol-3-ylamino)-N-(2,3,6-trifluoro-5-(propylsulfonamido)phenyl)quinazoline-8-carboxamide]: less than 6.00.

Regarding `CCCS(=O)(=O)Nc1cc(F)c(F)c(NC(=O)c2cccc3c(NCC)ncnc23)c1F` [Example 49, 4-Ethylamino-quinazoline-8-carboxylic acid [2,3,6-trifluoro-5-(propane-1-sulfonylamino)-phenyl]-amide], the pIC50 was greater than 6.00 on V600E full-length B-Raf (setting [3]) and 6.13 on V600E full-length B-Raf (setting [2]). As to `CCCS(=O)(=O)Nc1cc(F)c(F)c(NC(=O)c2cccc3c(NC)ncnc23)c1F` [Example 50, 4-Methylamino-quinazoline-8-carboxylic acid [2,3,6-trifluoro-5-(propane-1-sulfonylamino)-phenyl]-amide], on V600E full-length B-Raf (setting [2]), the pIC50 is less than 6.00. Turning to `CCCS(=O)(=O)Nc1cc(F)c(F)c(NC(=O)c2cccc3c(NC4CCNCC4)ncnc23)c1F` [Example 44, 4-(Piperidin-4-ylamino)-quinazoline-8-carboxylic acid [2,3,6-trifluoro-5-(propane-1-sulfonylamino)-phenyl]-amide], the pIC50 at V600E full-length B-Raf (setting [2]) is less than 6.00. The same measure, in the same setting: next, `CCCS(=O)(=O)Nc1cc(F)c(F)c(NC(=O)c2cccc3c(NC4CCOCC4)ncnc23)c1F` [Example 42, 4-(Tetrahydropyran-4-ylamino)-quinazoline-8-carboxylic acid [2,3,6-trifluoro-5-(propane-1-sulfonylamino)-phenyl]-amide]: less than 6.00. With `CCCS(=O)(=O)Nc1ccc(F)c(NC(=O)c2cc(C)cc3c(NC4CC4)ncnc23)c1F` [Example 73, 4-Cyclopropylamino-6-methyl-quinazoline-8-carboxylic acid [2,6-difluoro-3-(propane-1-sulfonylamino)-phenyl]-amide], the results for the pIC50 on V600E full-length B-Raf (setting [3]) and at V600E full-length B-Raf (setting [2]) were greater than 6.00 and 6.06, respectively. With `CCCS(=O)(=O)Nc1cc(F)c(F)c(NC(=O)c2cccc3c(NC4CC4)ncnc23)c1F` [Example 45, 4-Cyclopropylamino-quinazoline-8-carboxylic acid [2,3,6-trifluoro-5-(propane-1-sulfonylamino)-phenyl]-amide], the values for the pIC50 on V600E full-length B-Raf (setting [3]) and at V600E full-length B-Raf (setting [2]) were greater than 6.00 and 6.26, respectively. Turning to `CCCS(=O)(=O)Nc1cc(F)c(F)c(NC(=O)c2cccc3c(NC4CCCCC4)ncnc23)c1F` [Example 41, 4-Cyclohexylamino-quinazoline-8-carboxylic acid [2,3,6-trifluoro-5-(propane-1-sulfonylamino)-phenyl]-amide], at V600E full-length B-Raf (setting [2]), the pIC50 was less than 6.00.

Turning to `CCCS(=O)(=O)Nc1ccc(F)c(NC(=O)c2cc(C)cc3c(NC4CCOCC4)ncnc23)c1F` [Example 74, 6-Methyl-4-(tetrahydro-pyran-4-ylamino)-quinazoline-8-carboxylic acid [2,6-difluoro-3-(propane-1-sulfonylamino)-phenyl]-amide], the negative logarithm of the IC50 (pIC50) at V600E full-length B-Raf (setting [2]) was less than 6.00.

`CCCS(=O)(=O)Nc1ccc(F)c(NC(=O)c2cc(C)cc3c(NC4CCC(F)(F)CC4)ncnc23)c1F` [Example 76, 4-(4,4-Difluoro-cyclohexylamino)-6-methyl-quinazoline-8-carboxylic acid [2,6-difluoro-3-(propane-1-sulfonylamino)-phenyl]-amide]: on V600E full-length B-Raf (setting [2]), the pIC50 was less than 6.00. As to `O=C(Nc1c(F)ccc(NS(=O)(=O)CC2CC2)c1F)c1cccc2c(NC3CC3)ncnc12` [Example 53, 4-Cyclopropylamino-quinazoline-8-carboxylic acid (3-cyclopropylmethanesulfonylamino-2,6-difluoro-phenyl)-amide], the pIC50 on V600E full-length B-Raf (setting [3]) was greater than 6.00; at V600E full-length B-Raf (setting [2]), 6.01. In the case of `CCCS(=O)(=O)Nc1ccc(F)c(NC(=O)c2cc(C)cc3c(NC4CCC4)ncnc23)c1F` [Example 75, 4-Cyclobutylamino-6-methyl-quinazoline-8-carboxylic acid [2,6-difluoro-3-(propane-1-sulfonylamino)-phenyl]-amide], the pIC50 at V600E full-length B-Raf (setting [2]) is less than 6.00.
